This test concerns inflammation induced by tetradecanoyl phorbol acetate (TPA). Briefly: TPA model: inflammation (ear edema) induced by tetradecanoyl phorbol acetate in mice. Type of test: in vivo. Conditions: 100 μg/ear topical, mouse ear, TPA stimulus, edema measured four hours later. The source says: One such model is the inflammation induced by tetradecanoyl phorbol acetate (TPA). The test methods are modified from those of Marks et al. (Cancer Res, 36, p. 2636, 1976). The TPA model is a murine model which mimics many of the inflammatory changes which occur in human disease such as psoriasis. In this model, elevated levels of inflammatory arachidonic acid metabolites are found, and an influx or polymorphonuclear leukocytes (PMN) is observed. The procedure used to evaluate the compounds of this invention is as follows: the test compound (100 μg/ear) is applied to the ears of mice in an appropriate vehicle, such as acetone, and then the inflammatory stimulus is applied to the right ear. Four hours later, the edema is measured by removing standard sized discs from the mouse ears using a biopsy punch. The masses of the discs are then determined.

The structures appear in SMILES notation.

`C[C@@H](n1ccnc1)C(O)(c1ccc(Cl)cc1)c1ccc(Cl)cc1` [Example 5a, (R)-1,1-bis(4-chlorophenyl)-2-(1-imidazolyl)propanol]: the “% Inhibition of Control Inflammation” value amounted to 61%. For the compound `CC(n1ccnc1)C(O)(c1ccc(Cl)cc1)c1ccc(Cl)cc1` (centres unmarked) [Example 3e], the “% Inhibition of Control Inflammation” value is 55%. With `Cc1ccc(C(O)(c2ccc(C)cc2)[C@H](C)n2ccnc2)cc1` [Example 4a, (S)-1,1-bis(4-methylphenyl)-2-(1-imidazolyl)propanol], the “% Inhibition of Control Inflammation” value turned out to be 33%. Under `CC(n1ccnc1)C(O)(c1ccc(F)cc1)c1ccc(F)cc1` (centres unmarked) [Example 3b] stands 40%. Under `CCCC(n1ccnc1)C(O)(c1ccc(F)cc1)c1ccc(F)cc1` (centres unmarked) [Example 3c] stands 30%; under `CCC(n1ccnc1)C(O)(c1ccc(F)cc1)c1ccc(F)cc1` (racemic) [Example 3a, 1,1-bis(4-fluorophenyl)-2-(1-imidazolyl)butanol], 40%; under `OC(CCCn1ccnc1)(c1ccc(F)cc1)c1ccc(F)cc1` [Example 1a, 1,1-bis(4-fluorophenyl)-4-(1-imidazolyl)butanol], 31%. The value for `OC(Cn1ccnc1)(c1ccc(F)cc1)c1ccc(Br)cc1` (centres unmarked) [Example 2b, 1-(4-fluorophenyl)-1-(4-bromophenyl)-2-(1-imidazolyl)-ethanol] was 41%.

The values are drawn from patent US4859693A, “Antiinflammatory carbinoloimidazoles” (E. I. Du Pont de Nemours and Company, priority 1988, dated 1989).
